Reference: patent US20080188659A1, “Method for Preparing Halogenated Amines” (Wyeth, priority 2007, published 2008)
Where two headings read alike, the source gives them in different places.

What was measured:
[1] = target: T1, mouse 11b-HSD1 (Mus musculus, UniProt P50172); test: cell-based assay, stable CHO cell line expressing mouse 11b-HSD1, cortisol measured with DiscoverX HitHunter Cortisol Assay; settings: CHO cells expressing mouse 11b-HSD1, 500 nM cortisone, 120 minutes
T1 construct: expressed in transfected cells
T1 sequence (P50172 whole entry): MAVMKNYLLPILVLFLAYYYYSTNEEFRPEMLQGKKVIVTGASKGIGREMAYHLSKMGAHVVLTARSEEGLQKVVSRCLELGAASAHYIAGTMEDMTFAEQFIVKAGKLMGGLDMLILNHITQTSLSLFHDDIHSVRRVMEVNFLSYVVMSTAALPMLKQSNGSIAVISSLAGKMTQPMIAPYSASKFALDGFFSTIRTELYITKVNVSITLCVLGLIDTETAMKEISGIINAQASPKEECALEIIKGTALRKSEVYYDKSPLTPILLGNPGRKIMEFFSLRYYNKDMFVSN
Protocol: To determine the potency of compounds against mouse 11b-HSD1, a stable CHO cell line expressing mouse 11b-HSD1 is used. Cells are plated at 20,000 cells/well in 96 well plates and incubated overnight (12-16 hrs) at 37° C./5% CO2. […] 10 ul of 5 micromolar cortisone (final concentration 500 nM) is then added to the cells and the plate is incubated at 37° C./5% CO2 for 120 minutes. 15 microliter of media is withdrawn and amount of cortisol in the media is measured using the DiscoverX HitHunter Cortisol Assay (DiscoverX corp, CA).

[2] = target: T2, human 11b-HSD1 (Homo sapiens, UniProt P28845); test: cell-based assay, stable CHO cell line expressing human 11b-HSD1, cortisol measured with DiscoverX HitHunter Cortisol Assay; settings: CHO cells expressing human 11b-HSD1; serum-free media; 500 nM cortisone, 120 minutes; read-out: Human 1C50
T2 construct: expressed in transfected cells
T2 sequence (P28845 whole entry): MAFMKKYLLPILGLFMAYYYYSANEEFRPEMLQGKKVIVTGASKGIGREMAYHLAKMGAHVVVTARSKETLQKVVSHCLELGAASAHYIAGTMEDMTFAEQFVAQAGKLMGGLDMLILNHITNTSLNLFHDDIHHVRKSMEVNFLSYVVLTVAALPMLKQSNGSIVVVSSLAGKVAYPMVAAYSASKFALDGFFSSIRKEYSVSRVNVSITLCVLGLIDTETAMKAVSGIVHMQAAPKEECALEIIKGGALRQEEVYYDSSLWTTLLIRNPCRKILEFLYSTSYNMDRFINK
Protocol: Compounds described herein can be tested in a cell-based assay using a stable CHO cell line expressing human 11b-HSD1. Cells are plated at 20,000 cells/well in 96 well plates and incubated overnight (12-16 hrs) at 37° C./5% CO2. Cells are treated with different concentration of compound in 90 microliter serum-free media and incubated for 30 minutes at 37° C./5% CO2. 10 ul of 5 micromolar cortisone (final concentration 500 nM) is then added to the cells and the plate is incubated at 37° C./5% CO2 for 120 minutes. 15 microliter of media is withdrawn and amount of cortisol in the media is measured using the DiscoverX HitHunter Cortisol Assay (DiscoverX corp, CA).

[3] = media containing 10% delipidized human serum, read-out: Mouse + Serum 1C50
[4] = serum-free media, read-out: Mouse 1C50

CCN(CC)C(=O)c1ccc(C(N)(C(F)(F)F)C(F)(F)F)cc1 [Example 12, 4-(1-Amino-2,2,2-trifluoro-1-trifluoromethyl-ethyl)-N,N-diethyl-benzamide]
IC50 [1, 3]: 0.165 µM

C[C@@H]1CN(c2ccc(C(N)(C(F)(F)F)C(F)(F)F)nc2)CCN1S(=O)(=O)c1cccc(C(C)(O)C(F)(F)F)c1 (stereo partly drawn) [Example 14, 2-(3-{[(2R)-4-{6-[1-amino-2,2,2-trifluoro-1-(trifluoromethyl)ethyl]pyridin-3-yl}-2-methylpiperazin-1-yl]sulfonyl}phenyl)-1,1,1-trifluoropropan-2-ol]
IC50 [2]: < 0.01 µM | IC50 [1, 4]: 0.16 µM

NC(c1cccc(S(=O)(=O)N2CCCCC2)c1)(C(F)(F)F)C(F)(F)F [Example 1, 2,2,2-Trifluoro-1-[3-(piperidine-1-sulfonyl)-phenyl]-1-trifluoromethyl-ethylamine]
IC50 [2]: > 10 µM | IC50 [1, 3]: 3.32 µM | IC50 [1, 4]: > 10 µM

COc1ccc(N(C(=O)OC(C)(C)C)S(=O)(=O)c2ccc(C(N)(C(F)(F)F)C(F)(F)F)cc2)cc1 [Example 10, 4-(1-Amino-2,2,2-trifluoro-1-trifluoromethyl-ethyl)-N-(tert-butoxycarbonyl)-N-(4-methoxy-phenyl)-benzenesulfonamide]
IC50 [2]: > 10 µM | IC50 [1, 3]: > 10 µM | IC50 [1, 4]: > 10 µM

CC(C)(C)OC(=O)N(Cc1ccccc1)S(=O)(=O)c1cccc(C(N)(C(F)(F)F)C(F)(F)F)c1 [Example 6, 3-(1-Amino-2,2,2-trifluoro-1-trifluoromethyl-ethyl)-N-benzyl-N-(tert-butoxycarbonyl)-benzenesulfonamide]
IC50 [2]: > 10 µM | IC50 [1, 3]: > 10 µM | IC50 [1, 4]: > 10 µM

NC(c1ccc(C(=O)N2CCCCC2)cc1)(C(F)(F)F)C(F)(F)F [Example 9, [4-(1-Amino-2,2,2-trifluoro-1-trifluoromethyl-ethyl)-phenyl]-piperidin-1-yl-methanone]
IC50 [2]: > 10 µM | IC50 [1, 3]: 8.38 µM | IC50 [1, 4]: > 10 µM

CCN(CC)C(=O)c1cccc(C(N)(C(F)(F)F)C(F)(F)F)c1 [Example 11, 3-(1-Amino-2,2,2-trifluoro-1-trifluoromethyl-ethyl)-N,N-diethyl-benzamide]
IC50 [1, 3]: 0.291 µM

C[C@@H]1CN(c2ccc(C(N)(C(F)(F)F)C(F)(F)F)cc2C(F)(F)F)CCN1S(=O)(=O)c1cccc(C(C)(O)C(F)(F)F)c1 (stereo partly drawn) [Example 15, 2-(3-{[(2R)-4-{4-[1-amino-2,2,2-trifluoro-1-(trifluoromethyl)ethyl]-2-(trifluoromethyl)phenyl}-2-methylpiperazin-1-yl]sulfonyl}phenyl)-1,1,1-trifluoropropan-2-ol]
IC50 [2]: 0.08 µM | IC50 [1, 4]: 0.2 µM

NC(c1ccc(S(=O)(=O)N2CCCCC2)cc1)(C(F)(F)F)C(F)(F)F [Example 2, 2,2,2-Trifluoro-1-[4-(piperidine-1-sulfonyl)-phenyl]-1-trifluoromethyl-ethylamine]
IC50 [2]: 0.428 µM | IC50 [1, 3]: 0.731 µM | IC50 [1, 4]: 0.613 µM

COc1ccc(N(C(=O)OC(C)(C)C)S(=O)(=O)c2cccc(C(N)(C(F)(F)F)C(F)(F)F)c2)cc1 [Example 8, 3-(1-Amino-2,2,2-trifluoro-1-trifluoromethyl-ethyl)-N-(tert-butoxycarbonyl)-N-(4-methoxy-phenyl)-benzenesulfonamide]
IC50 [2]: > 10 µM | IC50 [1, 3]: > 10 µM | IC50 [1, 4]: > 10 µM

CCN(CC)S(=O)(=O)c1cccc(C(N)(C(F)(F)F)C(F)(F)F)c1 [Example 4, 3-(1-Amino-2,2,2-trifluoro-1-trifluoromethyl-ethyl)-N,N-diethyl-benzenesulfonamide]
IC50 [2]: > 10 µM | IC50 [1, 3]: > 10 µM | IC50 [1, 4]: > 10 µM

C[C@@H]1CN(c2ccc(C(N)(C(F)(F)F)C(F)(F)F)cc2C(F)(F)F)CCN1S(=O)(=O)c1ccc(C(C)(O)C(F)(F)F)cc1 (stereo partly drawn) [Example 16, 2-{4-([(2R)-4-[4-[1-amino-2,2,2-trifluoro-1-(trifluoromethyl)ethyl]-2-(trifluoromethyl)phenyl]-2-methylpiperazin-1-yl}sulfonyl)phenyl]-1,1,1-trifluoropropan-2-ol]
IC50 [2]: 0.09 µM | IC50 [1, 4]: < 0.1 µM

NC(c1cccc(S(=O)(=O)N2CCCC2)c1)(C(F)(F)F)C(F)(F)F [Example 3, 2,2,2-Trifluoro-1-[3-(pyrrolidine-1-sulfonyl)-phenyl]-1-trifluoromethyl-ethylamine]
IC50 [2]: > 10 µM | IC50 [1, 3]: > 10 µM | IC50 [1, 4]: > 10 µM

CCN(CC)S(=O)(=O)c1ccc(C(N)(C(F)(F)F)C(F)(F)F)cc1 [Example 13, 4-(1-Amino-2,2,2-trifluoro-1-trifluoromethyl-ethyl)-N,N-diethyl-benzenesulfonamide]
IC50 [2]: 0.565 µM | IC50 [1, 3]: 0.645 µM | IC50 [1, 4]: 0.225 µM

NC(c1cccc(C(=O)N2CCCCC2)c1)(C(F)(F)F)C(F)(F)F [Example 7, [3-(1-Amino-2,2,2-trifluoro-1-trifluoromethyl-ethyl)-phenyl]-piperidin-1-yl-methanone]
IC50 [2]: 2.38 µM | IC50 [1, 3]: 2.69 µM | IC50 [1, 4]: > 10 µM

CC(C)(C)OC(=O)N(C1CCCCC1)S(=O)(=O)c1cccc(C(N)(C(F)(F)F)C(F)(F)F)c1 [Example 5, 3-(1-Amino-2,2,2-trifluoro-1-trifluoromethyl-ethyl)-N-(tert-butoxycarbonyl)-N-cyclohexyl-benzenesulfonamide]
IC50 [2]: > 10 µM | IC50 [1, 3]: > 10 µM | IC50 [1, 4]: > 10 µM
